Laboratory results taken from patent US20060079453A1, “Hla binding peptides and their uses” (priority 2002, published 2006).
Read-outs that look alike come from different tables or passages of the source. No end group written: not given here.

Tests used:
Assay in all cases: biochemical
Type in all cases: binding
HLA-DR DRB1*1501 (DR15) = HLA-DR DRB1*1501 (DR15) (Homo sapiens, UniProt P01903+P01911)
HLA-DR DRB3*0101 (DR52) = HLA-DR DRB3*0101 (DR52) (Homo sapiens, UniProt P01903+P79483)
HLA-DR DRB4*0101 (DR53) = HLA-DR DRB4*0101 (DR53) (Homo sapiens, UniProt P01903+P13762, G164S)
HLA-DR DRB5*0101 (DR51) = HLA-DR DRB5*0101 (DR51) (Homo sapiens, UniProt P01903+Q30154)
HLA-DR DRB1*1101 (DR11) = HLA-DR DRB1*1101 (DR11) (Homo sapiens, UniProt P01903+P01911, A100R/A169T/A87E/I96F/K41T/L162R/M171V/P40S/Q125H/Q178H/Q39Y/Q99D/R42S/S66Y/T262R/V115G/W38E)
Sequence of HLA-DR DRB1*1101 (DR11) (P01903 26-254 limits assumed, other chains not shown): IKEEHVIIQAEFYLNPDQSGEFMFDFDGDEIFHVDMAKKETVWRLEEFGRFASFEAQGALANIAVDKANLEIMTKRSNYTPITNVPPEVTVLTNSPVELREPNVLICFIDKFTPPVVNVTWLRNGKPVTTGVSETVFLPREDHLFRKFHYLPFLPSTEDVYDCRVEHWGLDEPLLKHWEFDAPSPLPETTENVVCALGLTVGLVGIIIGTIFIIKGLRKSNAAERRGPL

HLA-DR DRB1*1302 (DR13) = HLA-DR DRB1*1302 (DR13) (Homo sapiens, UniProt P01903+P01911, A100E/A169T/K41T/L162R/M171V/P40S/Q125H/Q178H/Q39Y/Q99D/R42S/S66N/T262R/V115G/W38E/Y61H)
Sequence of HLA-DR DRB1*1302 (DR13) (P01903 26-254 limits assumed, other chains not shown): as above

HLA-DR DRB1*0301 (DR3) = HLA-DR DRB1*0301 (DR3) (Homo sapiens, UniProt P01903+P01911, A100K/A102G/A103R/A169T/F55Y/I96L/K41T/L162R/M171V/P40S/Q125H/Q178H/Q39Y/R42S/S66N/T106N/T262R/W38E/Y61H)
Sequence of HLA-DR DRB1*0301 (DR3) (P01903 26-254 limits assumed, other chains not shown): as above

HLA-DR DRB1*0701 (DR7) = HLA-DR DRB1*0701 (DR7) (Homo sapiens, UniProt P01903+P01911, A100R/A102G/A103Q/D57E/D86V/E43K/F76Y/K127E/L162R/M171V/P40G/Q125H/Q99D/R33Q/R42Y/R54Q/S133A/S66F/T210M/V115G/Y107V/Y59L/Y89S); conditions: DRB1 *0701
HLA-DR DRB1*0401 (DR4) = HLA-DR DRB1*0401 (DR4) (Homo sapiens, UniProt P01903+P01911, A100K/A169T/F76Y/I96L/K127E/L162R/M171V/N62H/P40V/Q125Y/R42H/S133A/S149N/S66Y/V115G/V209L/W38E); conditions: DRB1 *0401

Row | Substance | IC50 (HLA-DR DRB1*1501 (DR15); read-out: DRBI *1501) [µM] | IC50 (HLA-DR DRB3*0101 (DR52); read-out: DRB3 *0101) [µM] | IC50 (HLA-DR DRB4*0101 (DR53); read-out: DRB4 *0101) [µM] | IC50 (HLA-DR DRB3*0101 (DR52)) [µM] | IC50 (HLA-DR DRB5*0101 (DR51); read-out: DRB5 *0101) [µM] | IC50 (HLA-DR DRB1*1101 (DR11); read-out: DRB1 *1101) [µM] | IC50 (HLA-DR DRB1*1302 (DR13); read-out: DRBI *1302) [µM] | other results
1 | YLVTGERGFFYTKPT | > 21 | 9.57 | 27.9 |  |  |  |  | 
2 | Ac-NPDAENWNSQFEILEDAA |  |  |  | 1 |  |  |  | IC50 (HLA-DR DRB1*1501 (DR15); DRBI *1501): > 10 µM; IC50 (HLA-DR DRB5*0101 (DR51); DRB5 *0101): 50 µM; IC50 (HLA-DR DRB1*1101 (DR11); DRB1 *1101): > 33.3 µM; IC50 (HLA-DR DRB1*1302 (DR13); DRBI *1302): > 10 µM
3 | DSSLEGNYTLRVDCT | 1.2 | 0.576 |  |  | 16.8 | > 50 | 0.0076 | 
4 | MSAMTALAALFPPEG |  | 7.16 |  |  | 63.2 | > 200 |  | 
5 | HQAISPRTLNSPAIF | 8.11 | > 83.3 | 0.13 |  | > 200 | 33.7 |  | 
6 | VGGVYLLPRRGPRIGV | 0.0042 | 60.8 | 19.2 |  | 0.012 | 0.088 | > 15.4 | 
7 | VRYTTEGGTKSEVEDVIPEG |  |  |  | > 25 |  |  |  | IC50 (HLA-DR DRB1*0301 (DR3)): > 30 µM; IC50 (HLA-DR DRB1*0701 (DR7)): > 12.5 µM; IC50 (HLA-DR DRB1*0401 (DR4)): > 0.667 µM
8 | TAWTIYRVEILRNFY |  | 14.4 | 0.026 |  | 0.518 | 5.05 | 0.072 | 
9 | TLERPKTLSPGKNGV | 23.3 | > 263 | 25.7 |  | 11.3 | > 52.6 | 0.835 | 
10 | YKTIAYDEEARR |  |  |  | > 50 |  |  |  | IC50 (HLA-DR DRB5*0101 (DR51); DRB5 *0101): ≥ 200 µM
11 | SAAPLRTITADTFRK [SAAPLRT1TADTFRK] |  |  |  | 2.11 |  |  |  | IC50 (HLA-DR DRB1*1501 (DR15); DRBI *1501): 0.858 µM; IC50 (HLA-DR DRB5*0101 (DR51); DRB5 *0101): 0.045 µM; IC50 (HLA-DR DRB1*1101 (DR11); DRB1 *1101): 3.88 µM; IC50 (HLA-DR DRB1*1302 (DR13); DRBI *1302): 0.809 µM; IC50 (HLA-DR DRB4*0101 (DR53); DRB4 *0101): 0.017 µM
